Measured values from PMC10648852, “Molecular drivers of resistance to sulbactam-durlobactam in contemporary clinical isolates of Acinetobacter baumannii” (Antimicrobial Agents and Chemotherapy, 2023).

Key:
Assay in all cases: microbe, parasite or virus in culture
[1] = system: A. nosocomialis clinical isolate; format: cell-based; details: isolate ARC7023 (IHMA 2118812), France, BSI, 2019
Protocol: (§1) The following report describes the genomic analysis of these isolates for likely resistance mechanisms. Biochemical analysis of purified PBP3 and phenotypic analyses of both clinical and isogenic strains were also conducted to determine the relative impact of key resistance determinants to SUL-DUR antibacterial activity.
(§2) Antimicrobial susceptibility testing was performed using broth microdilution following standardized methods established by the Clinical Laboratory Standards Institute (CLSI) ([35], [36]). […] MIC values were interpreted using CLSI breakpoints for all antimicrobial agents except those for which CLSI breakpoints are not available ([35]). SUL-DUR was tested as twofold dilutions of sulbactam in combination with a fixed concentration of 4 µg/mL durlobactam ([35]).

[2] = system: A. baumannii clinical isolates; format: cell-based
Protocol: as §1, §2

[3] = system: A. pittii clinical isolates; format: cell-based
Protocol: as §1, §2

[4] = system: ABC clinical isolates with SUL-DUR MIC > 4 µg/mL; format: cell-based, Acinetobacter baumannii-calcoaceticus complex
Protocol: as §1, §2

Question: With colistin [CST] as the substance, how does the MIC [1] read?
Answer: 1 µg/mL

Question: And the MIC ([2]; isolate ARC6644 (IHMA 1420327), Mexico, UTI, 2016)?
Answer: ≤0.25 µg/mL

Question: And the MIC ([2]; isolate ARC6645 (IHMA 1435703), France, UTI, 2016)?
Answer: ≤0.25 µg/mL

Question: And the MIC ([2]; isolate ARC6646 (IHMA 1484127), United States, RTI, 2016)?
Answer: 0.5 µg/mL

Question: And the MIC ([2]; isolate ARC6647 (IHMA 1386786), Argentina, RTI, 2016)?
Answer: 0.5 µg/mL

Question: What about the MIC ([2]; isolate ARC6648 (IHMA 1407634), Spain, RTI, 2016) of the same substance?
Answer: ≤0.25 µg/mL

Question: And the MIC ([2]; isolate ARC6650 (IHMA 1457337), Argentina, RTI, 2016)?
Answer: 0.5 µg/mL

Question: And the MIC ([2]; isolate ARC6652 (IHMA 1465642), Belgium, RTI, 2016)?
Answer: ≤0.25 µg/mL

Question: What about the MIC ([2]; isolate ARC6653 (IHMA 1308777), Vietnam, RTI, 2016) of the same substance?
Answer: 0.5 µg/mL

Question: What about the MIC ([2]; isolate ARC6799 (IHMA 1562935), Spain, UTI, 2017) of the same substance?
Answer: 0.5 µg/mL

Question: What about the MIC ([2]; isolate ARC6800 (IHMA 1557526), Turkey, RTI, 2017) of the same substance?
Answer: >8 µg/mL

Question: What about the MIC ([2]; isolate ARC6801 (IHMA 1662094), Thailand, RTI, 2017) of the same substance?
Answer: ≤0.25 µg/mL

Question: And the MIC ([2]; isolate ARC6802 (IHMA 1557073), Spain, UTI, 2017)?
Answer: ≤0.25 µg/mL

Question: And the MIC ([2]; isolate ARC6803 (IHMA 1589408), Belgium, UTI, 2017)?
Answer: ≤0.25 µg/mL

Question: And the MIC ([2]; isolate ARC6805 (IHMA 1558650), United States, RTI, 2017)?
Answer: ≤0.25 µg/mL

Question: What about the MIC ([2]; isolate ARC6808 (IHMA 1557168), Spain, RTI, 2017) of the same substance?
Answer: ≤0.25 µg/mL

Question: What about the MIC ([2]; isolate ARC6809 (IHMA 1699528), Guatemala, RTI, 2017) of the same substance?
Answer: 0.5 µg/mL

Question: And the MIC ([2]; isolate ARC6810 (IHMA 1699548), Guatemala, RTI, 2017)?
Answer: 0.5 µg/mL

Question: What about the MIC ([2]; isolate ARC6812 (IHMA 1699530), Guatemala, RTI, 2017) of the same substance?
Answer: 0.5 µg/mL

Question: And the MIC ([2]; isolate ARC6813 (IHMA 1699543), Guatemala, UTI, 2017)?
Answer: ≤0.25 µg/mL

Question: What about the MIC ([2]; isolate ARC6814 (IHMA 1699512), Guatemala, RTI, 2017) of the same substance?
Answer: 0.5 µg/mL

Question: And the MIC ([2]; isolate ARC6815 (IHMA 1699513), Guatemala, RTI, 2017)?
Answer: 0.5 µg/mL

Question: What about the MIC ([2]; isolate ARC6816 (IHMA 1699521), Guatemala, RTI, 2017) of the same substance?
Answer: 0.5 µg/mL

Question: And the MIC ([2]; isolate ARC6817 (IHMA 1699523), Guatemala, RTI, 2017)?
Answer: 0.5 µg/mL

Question: And the MIC ([2]; isolate ARC6818 (IHMA 1683261), Thailand, RTI, 2017)?
Answer: ≤0.25 µg/mL

Question: What about the MIC ([2]; isolate ARC6819 (IHMA 1683267), Thailand, RTI, 2017) of the same substance?
Answer: 1 µg/mL

Question: And the MIC ([2]; isolate ARC6820 (IHMA 1647876), Argentina, RTI, 2017)?
Answer: ≤0.25 µg/mL

Question: And the MIC ([2]; isolate ARC6821 (IHMA 1699517), Guatemala, RTI, 2017)?
Answer: 0.5 µg/mL

Question: What about the MIC ([2]; isolate ARC6822 (IHMA 1637626), Guatemala, RTI, 2017) of the same substance?
Answer: 0.5 µg/mL

Question: What about the MIC ([2]; isolate ARC6823 (IHMA 1620872), Greece, SSSI, 2017) of the same substance?
Answer: 1 µg/mL

Question: What about the MIC ([2]; isolate ARC6824 (IHMA 1625487), Argentina, BSI, 2017) of the same substance?
Answer: 1 µg/mL

Question: What about the MIC ([2]; isolate ARC6937 (IHMA 1562926), Spain, UTI, 2017) of the same substance?
Answer: 0.5 µg/mL

Question: What about the MIC ([2]; isolate ARC6950 (IHMA 1820064), Israel, RTI, 2018) of the same substance?
Answer: 0.5 µg/mL

Question: What about the MIC ([2]; isolate ARC6953 (IHMA 1909827), Turkey, IAI, 2018) of the same substance?
Answer: 0.5 µg/mL

Question: What about the MIC ([2]; isolate ARC6954 (IHMA 1838192), Guatemala, SSSI, 2018) of the same substance?
Answer: 0.5 µg/mL

Question: And the MIC ([2]; isolate ARC6955 (IHMA 1825425), United States, RTI, 2018)?
Answer: 0.5 µg/mL

Question: What about the MIC ([2]; isolate ARC7008 (IHMA 2009813), Thailand, BSI, 2019) of the same substance?
Answer: 0.5 µg/mL

Question: What about the MIC ([2]; isolate ARC7009 (IHMA 2043611), United States, UTI, 2019) of the same substance?
Answer: 0.5 µg/mL

Question: What about the MIC ([2]; isolate ARC7010 (IHMA 2043398), United States, RTI, 2019) of the same substance?
Answer: 0.5 µg/mL

Question: What about the MIC ([2]; isolate ARC7011 (IHMA 2104553), Germany, RTI, 2019) of the same substance?
Answer: 0.5 µg/mL

Question: What about the MIC ([2]; isolate ARC7012 (IHMA 2010001), Thailand, RTI, 2019) of the same substance?
Answer: 1 µg/mL

Question: And the MIC ([2]; isolate ARC7013 (IHMA 1962831), Argentina, RTI, 2019)?
Answer: 0.5 µg/mL

Question: And the MIC ([2]; isolate ARC7014 (IHMA 2045328), Guatemala, IAI, 2019)?
Answer: 1 µg/mL

Question: And the MIC ([2]; isolate ARC7015 (IHMA 2045327), Guatemala, UTI, 2019)?
Answer: 0.5 µg/mL

Question: What about the MIC ([2]; isolate ARC7016 (IHMA 2148441), Brazil, BSI, 2019) of the same substance?
Answer: 0.5 µg/mL

Question: What about the MIC ([2]; isolate ARC7017 (IHMA 2148446), Brazil, BSI, 2019) of the same substance?
Answer: ≤0.25 µg/mL

Question: What about the MIC ([2]; isolate ARC7018 (IHMA 2045454), Guatemala, IAI, 2019) of the same substance?
Answer: 0.5 µg/mL

Question: What about the MIC ([2]; isolate ARC7019 (IHMA 2114463), Thailand, RTI, 2019) of the same substance?
Answer: 0.5 µg/mL

Question: And the MIC ([2]; isolate ARC7020 (IHMA 2045326), Guatemala, RTI, 2019)?
Answer: 0.5 µg/mL

Question: And the MIC ([2]; isolate ARC7021 (IHMA 1966347), Guatemala, RTI, 2019)?
Answer: 1 µg/mL

Question: And the MIC ([2]; isolate ARC7022 (IHMA 2045319), Guatemala, IAI, 2019)?
Answer: 0.5 µg/mL

Question: And the MIC ([2]; isolate ARC7024 (IHMA 2059448), Turkey, RTI, 2019)?
Answer: 1 µg/mL

Question: What about the MIC ([2]; isolate ARC7025 (IHMA 2002121), Spain, RTI, 2019) of the same substance?
Answer: 0.5 µg/mL

Question: What about the MIC ([2]; isolate ARC7026 (IHMA 2104494), Guatemala, BSI, 2019) of the same substance?
Answer: 0.5 µg/mL

Question: What about the MIC ([2]; isolate ARC7082 (IHMA 2160640), Belgium, BSI, 2020) of the same substance?
Answer: ≤0.25 µg/mL

Question: What about the MIC ([2]; isolate ARC7083 (IHMA 2163687), United States, RTI, 2020) of the same substance?
Answer: 0.5 µg/mL

Question: What about the MIC ([2]; isolate ARC7084 (IHMA 2189596), Germany, RTI, 2020) of the same substance?
Answer: ≤0.25 µg/mL

Question: What about the MIC ([2]; isolate ARC7085 (IHMA 2205747), Guatemala, IAI, 2020) of the same substance?
Answer: ≤0.25 µg/mL

Question: What about the MIC ([2]; isolate ARC7086 (IHMA 2207563), Israel, RTI, 2020) of the same substance?
Answer: ≤0.25 µg/mL

Question: What about the MIC ([2]; isolate ARC7088 (IHMA 2215554), Turkey, BSI, 2020) of the same substance?
Answer: ≤0.25 µg/mL

Question: And the MIC ([2]; isolate ARC7089 (IHMA 2240345), Argentina, BSI, 2020)?
Answer: ≤0.25 µg/mL

Question: And the MIC ([2]; isolate ARC7090 (IHMA 2244410), Poland, RTI, 2020)?
Answer: >8 µg/mL

Question: What about the MIC ([2]; isolate ARC7091 (IHMA 2244564), Australia, RTI, 2020) of the same substance?
Answer: ≤0.25 µg/mL

Question: And the MIC ([2]; isolate ARC7092 (IHMA 2258772), United States, BSI, 2020)?
Answer: 0.5 µg/mL

Question: And the MIC ([2]; isolate ARC7093 (IHMA 2258783), United States, RTI, 2020)?
Answer: ≤0.25 µg/mL

Question: What about the MIC ([2]; isolate ARC7094 (IHMA 2296423), Turkey, RTI, 2020) of the same substance?
Answer: ≤0.25 µg/mL

Question: And the MIC ([2]; isolate ARC7095 (IHMA 2320843), Turkey, BSI, 2020)?
Answer: ≤0.25 µg/mL

Question: And the MIC ([2]; isolate ARC7156 (IHMA 2455450), Greece, RTI, 2021)?
Answer: 8 µg/mL

Question: And the MIC ([2]; isolate ARC7158 (IHMA 2523738), Italy, BSI, 2021)?
Answer: 0.25 µg/mL

Question: And the MIC ([2]; isolate ARC7159 (IHMA 2456229), Malaysia, RTI, 2021)?
Answer: 0.25 µg/mL

Question: What about the MIC ([2]; isolate ARC7160 (IHMA 2458626), Thailand, RTI, 2021) of the same substance?
Answer: 0.25 µg/mL

Question: And the MIC ([2]; isolate ARC7161 (IHMA 2429252), Ukraine, RTI, 2021)?
Answer: 0.5 µg/mL

Question: And the MIC ([2]; isolate ARC7162 (IHMA 2411847), United States, BSI, 2021)?
Answer: 0.25 µg/mL

Question: And the MIC ([2]; isolate ARC7163 (IHMA 2477704), United States, BSI, 2021)?
Answer: 0.25 µg/mL

Question: What about the MIC ([3]; isolate ARC6949 (IHMA 1898982), Romania, RTI, 2018) of the same substance?
Answer: 0.5 µg/mL

Question: What about the MIC ([3]; isolate ARC6951 (IHMA 1776233), Philippines, RTI, 2018) of the same substance?
Answer: ≤0.25 µg/mL

Question: What about the MIC ([3]; isolate ARC6952 (IHMA 1899008), Romania, RTI, 2018) of the same substance?
Answer: 1 µg/mL

Question: And the MIC ([3]; isolate ARC7087 (IHMA 2212062), Colombia, BSI, 2020)?
Answer: ≤0.25 µg/mL

Question: And the MIC50 [4]?
Answer: 0.5 µg/mL

Question: What about the MIC90 [4] of the same substance?
Answer: 1 µg/mL

Question: What about the “MIC Max” value [4] of the same substance?
Answer: >8 µg/mL

Question: And the “MIC Min” value [4]?
Answer: ≤0.25 µg/mL
